# System: normal human lung fibroblasts
# Experiment: Ribosomal profiling: translational efficiency in TGFβ-treated fibroblasts
# Assay type: cell-based
# Settings: TGFβ-treated fibroblasts
# Experimental: Ribosomal profiling allows for measurement of changes in transcription and translation on a genome-wide basis accompanying TGFβ-dependent transformation of fibroblasts to myofibroblasts. Ribosomal profiles of the TGFβ-treated fibroblasts from Example 1 (about 6×10^6 cells/10 cm plate) were prepared and analyzed for changes in translational efficiencies with respect to potential disease-associated cellular changes accompanying this TGFβ-induced transformation.
# Briefly, cells were washed with cold PBS supplemented with cycloheximide and lysed with 1× mammalian cell lysis buffer for 10 minutes on ice. Lysates were clarified by centrifugation for 10 minutes at 14,000 rpm and supernatants were collected. Cell lysates were processed to generate ribosomal protected fragments and total mRNA according to the instructions included with the ARTseq Ribosome Profiling Kit (Illumina, San Diego, Calif.). Sequencing of total RNA (RNA) and of ribosome-protected fragments of RNA (RPF) was carried out using RNA-Seq methodology according to the manufacturer's instructions (Illumina). To analyze the ribosomal profiles, RNA-Seq reads were processed with tools from the FASTX-Toolkit (fastq_quality_trimmer, fastx_clipper and fastx_trimmer). Unprocessed and processed reads were evaluated for a variety of quality measures using FastQC, and processed reads were mapped to the human genome using TopHat (see, e.g., Trapnell et al., Bioinformatics 25:1105, 2009). Gene-by-gene assessment of the number of fragments strictly and uniquely mapping to the coding region of each gene was conducted using HTSeq-count, a component of the HTSeq package. […] Genes with low counts in either RPF or RNA were excluded from differential analyses. Pathway and network analyses of differential data were conducted using Ingenuity Pathway Analysis (IPA).
smiles,measurement,setting,value
COC(=O)[C@H]1[C@@H](O)[C@@]2(O)c3c(OC)cc(O[C@@H]4O[C@@H]([C@H](O)CO)CO[C@H]4OC)cc3O[C@@]2(c2ccc(OC)cc2)[C@@H]1c1ccccc1 [Silvestrol],renormalizing the translational profile of LAMP5,ENSG00000125869,− (− = <0.9)
same,renormalizing the translational profile of NECAB3,ENSG00000125967,− (− = <0.9)
same,renormalizing the translational profile of COX7C,ENSG00000127184,− (− = <0.9)
same,renormalizing the translational profile of LIF,ENSG00000128342,− (− = <0.9)
same,renormalizing the translational profile of MTUS1,ENSG00000129422,− (− = <0.9)
same,renormalizing the translational profile of ARHGEF6,ENSG00000129675,− (− = <0.9)
same,renormalizing the translational profile of RPL36,ENSG00000130255,− (− = <0.9)
same,renormalizing the translational profile of GDF15,ENSG00000130513,− (− = <0.9)
same,renormalizing the translational profile of ASS1,ENSG00000130707,− (− = <0.9)
same,renormalizing the translational profile of EIF2S3,ENSG00000130741,− (− = <0.9)
same,renormalizing the translational profile of RPL27,ENSG00000131469,− (− = <0.9)
same,renormalizing the translational profile of MATN3,ENSG00000132031,+ (+ = 0.9 to 1.5)
same,renormalizing the translational profile of PPARG,ENSG00000132170,+++ (+++ = >2.0)
same,renormalizing the translational profile of KDM6B,ENSG00000132510,+ (+ = 0.9 to 1.5)
same,renormalizing the translational profile of RARRES3,ENSG00000133321,− (− = <0.9)
same,renormalizing the translational profile of BIVM,ENSG00000134897,− (− = <0.9)
same,renormalizing the translational profile of ATP5G2,ENSG00000135390,− (− = <0.9)
same,renormalizing the translational profile of KRT7,ENSG00000135480,− (− = <0.9)
same,renormalizing the translational profile of HNRNPA1,ENSG00000135486,− (− = <0.9)
same,renormalizing the translational profile of IL6,ENSG00000136244,− (− = <0.9)
same,renormalizing the translational profile of RPL35,ENSG00000136942,− (− = <0.9)
same,renormalizing the translational profile of NOV,ENSG00000136999,− (− = <0.9)
same,renormalizing the translational profile of IER3,ENSG00000137331,− (− = <0.9)
same,renormalizing the translational profile of DDX60,ENSG00000137628,+ (+ = 0.9 to 1.5)
same,renormalizing the translational profile of RPLP1,ENSG00000137818,− (− = <0.9)
same,renormalizing the translational profile of PAQR5,ENSG00000137819,− (− = <0.9)
same,renormalizing the translational profile of AOX1,ENSG00000138356,− (− = <0.9)
same,renormalizing the translational profile of FGF5,ENSG00000138675,− (− = <0.9)
same,renormalizing the translational profile of PDE5A,ENSG00000138735,− (− = <0.9)
same,renormalizing the translational profile of GAS2L3,ENSG00000139354,+ (+ = 0.9 to 1.5)
same,renormalizing the translational profile of DIAPH3,ENSG00000139734,− (− = <0.9)
same,renormalizing the translational profile of MYO19,ENSG00000141140,+ (+ = 0.9 to 1.5)
same,renormalizing the translational profile of RPL13A,ENSG00000142541,− (− = <0.9)
same,renormalizing the translational profile of RPL11,ENSG00000142676,− (− = <0.9)
same,renormalizing the translational profile of PLEKHA6,ENSG00000143850,− (− = <0.9)
same,renormalizing the translational profile of RPL32,ENSG00000144713,− (− = <0.9)
same,renormalizing the translational profile of RPL37,ENSG00000145592,− (− = <0.9)
same,renormalizing the translational profile of BTF3,ENSG00000145741,− (− = <0.9)
same,renormalizing the translational profile of HIGD2A,ENSG00000146066,− (− = <0.9)
same,renormalizing the translational profile of CREB5,ENSG00000146592,− (− = <0.9)
same,renormalizing the translational profile of DENND2A,ENSG00000146966,− (− = <0.9)
same,renormalizing the translational profile of RPL10,ENSG00000147403,− (− = <0.9)
same,renormalizing the translational profile of EIF3H,ENSG00000147677,− (− = <0.9)
same,renormalizing the translational profile of RPL7A,ENSG00000148303,− (− = <0.9)
same,renormalizing the translational profile of EIF3M,ENSG00000149100,− (− = <0.9)
same,renormalizing the translational profile of FAU,ENSG00000149806,− (− = <0.9)
same,renormalizing the translational profile of CCDC102B,ENSG00000150636,− (− = <0.9)
same,renormalizing the translational profile of FRMD4A,ENSG00000151474,− (− = <0.9)
same,renormalizing the translational profile of HOMER1,ENSG00000152413,+ (+ = 0.9 to 1.5)
same,renormalizing the translational profile of PLEKHH2,ENSG00000152527,− (− = <0.9)
same,renormalizing the translational profile of ANKH,ENSG00000154122,+ (+ = 0.9 to 1.5)
same,renormalizing the translational profile of ABCA6,ENSG00000154262,++ (++ = 1.5 to 2.0)
same,renormalizing the translational profile of OBSCN,ENSG00000154358,− (− = <0.9)
same,renormalizing the translational profile of ADAMTS5,ENSG00000154736,+ (+ = 0.9 to 1.5)
same,renormalizing the translational profile of OXA1L,ENSG00000155463,− (− = <0.9)
same,renormalizing the translational profile of C9orf85,ENSG00000155621,− (− = <0.9)
same,renormalizing the translational profile of RPL30,ENSG00000156482,− (− = <0.9)
same,renormalizing the translational profile of EEF1A1,ENSG00000156508,− (− = <0.9)
same,renormalizing the translational profile of NRG1,ENSG00000157168,+ (+ = 0.9 to 1.5)
same,renormalizing the translational profile of RPL8,ENSG00000161016,− (− = <0.9)
same,renormalizing the translational profile of RPL26,ENSG00000161970,− (− = <0.9)
same,renormalizing the translational profile of RPL29,ENSG00000162244,− (− = <0.9)
same,renormalizing the translational profile of CAMK2N1,ENSG00000162545,− (− = <0.9)
same,renormalizing the translational profile of IGFBP7,ENSG00000163453,− (− = <0.9)
same,renormalizing the translational profile of RPL22L1,ENSG00000163584,− (− = <0.9)
